Results as given in ChEMBL document CHEMBL3885861, “Open TG-GATES”.

Organism: Rattus norvegicus
Assay: Open TG-GATES - Regimen: Daily Repeat
Format: toxicity, organism-based, Sprague-Dawley
Set-up: regimen Daily Repeat, gender Male, age 6 weeks
Conditions: in vivo, po, route gavage; for Bas / Eos / Fbg / Hb / Ht / MCV / Mono / Neu / Plat / RBC / Ret / WBC / MCHC: tissue Blood; for KIDNEY_L / KIDNEY_R / KIDNEY_TOTAL: tissue Kidney; for LIVER: tissue Liver; for ALP / AST / BUN / CRE / DBIL / GLC / IP / K / LDH / Na / PL / RALB / TBIL / TC / TG / TP / gamma-GTP: tissue Plasma
[1] = 60 mg/kg, 72 h, dose level Middle, time 3 day
[2] = 60 mg/kg, […], dose level Middle, time 7 day
[3] = 60 mg/kg, […], dose level Middle, time 14 day
[4] = 60 mg/kg, […], dose level Middle, time 28 day
[5] = 200 mg/kg, 72 h, dose level High, time 3 day
[6] = 200 mg/kg, […], dose level High, time 7 day
[7] = 200 mg/kg, […], dose level High, time 14 day
[8] = 200 mg/kg, […], dose level High, time 28 day

CO[C@H]1/C=C/O[C@@]2(C)Oc3c(C)c(O)c4c(O)c(c(/C=N/N5CCN(C)CC5)c(O)c4c3C2=O)NC(=O)/C(C)=C\C=C\[C@H](C)[C@H](O)[C@@H](C)[C@@H](O)[C@@H](C)[C@H](OC(C)=O)[C@@H]1C [RIFAMPIN]
TERMINAL_BW [1]: 238.2 g | Bas [1]: 0% | Eos [1]: 1% | Fbg [1]: 236.6 mg/dL | Hb [1]: 13.8 g/dL | Ht [1]: 41.4% | MCV [1]: 62.9 fL | Mono [1]: 5.8% | Neu [1]: 7.4% | Plat [1]: 118.3 x10_4/uL | RBC [1]: 658.2 x10_4/ul | Ret [1]: 5.7% | KIDNEY_L [1]: 1 g | KIDNEY_R [1]: 1 g | KIDNEY_TOTAL [1]: 2 g | LIVER [1]: 11.3 g | ALP [1]: 841.6 IU/L | AST [1]: 60.4 IU/L | BUN [1]: 19 mg/dL | CRE [1]: 0.6 mg/dL | DBIL [1]: 0.02 mg/dL | GLC [1]: 189 mg/dL | IP [1]: 9 mg/dL | K [1]: 4.7 meq/L | LDH [1]: 98.8 IU/L | Na [1]: 139.2 meq/L | PL [1]: 135.4 mg/dL | RALB [1]: 3.6 g/dL | TBIL [1]: 0.4 mg/dL | TC [1]: 83 mg/dL | TG [1]: 71 mg/dL | TP [1]: 5.7 g/dL | gamma-GTP [1]: 1 IU/L | TERMINAL_BW [2]: 259.9 g | TERMINAL_BW [3]: 298.5 g | TERMINAL_BW [4]: 379.8 g | Bas [2]: 0% | Eos [2]: 0.6% | Fbg [2]: 239.6 mg/dL | Hb [2]: 14.1 g/dL | Ht [2]: 42.6% | MCV [2]: 62.5 fL | Mono [2]: 5.2% | Neu [2]: 7% | Plat [2]: 107 x10_4/uL | RBC [2]: 683.2 x10_4/ul | Ret [2]: 5.7% | WBC [2]: 130.9 x10_2/uL | Bas [3]: 0% | Eos [3]: 0.6% | Fbg [3]: 226.6 mg/dL | Hb [3]: 15.2 g/dL | Ht [3]: 44.9% | MCHC [3]: 33.8% | MCV [3]: 60.6 fL | Mono [3]: 3.2% | Neu [3]: 3.4% | Plat [3]: 115.2 x10_4/uL | RBC [3]: 742.6 x10_4/ul | Ret [3]: 3.5% | WBC [3]: 161.2 x10_2/uL | Bas [4]: 0% | Eos [4]: 1% | Fbg [4]: 226.4 mg/dL | Hb [4]: 15.2 g/dL | Ht [4]: 44.9% | MCHC [4]: 33.8% | MCV [4]: 55.8 fL | Mono [4]: 3.4% | Neu [4]: 9.6% | Plat [4]: 117.9 x10_4/uL | RBC [4]: 803.6 x10_4/ul | Ret [4]: 2.3% | WBC [4]: 138.4 x10_2/uL | KIDNEY_L [2]: 1.1 g | KIDNEY_R [2]: 1.1 g | KIDNEY_TOTAL [2]: 2.2 g | KIDNEY_L [3]: 1.1 g | KIDNEY_R [3]: 1.2 g | KIDNEY_TOTAL [3]: 2.3 g | KIDNEY_L [4]: 1.3 g | KIDNEY_R [4]: 1.3 g | KIDNEY_TOTAL [4]: 2.7 g | LIVER [2]: 11.6 g | LIVER [3]: 12.9 g | LIVER [4]: 14.8 g | ALP [2]: 813.8 IU/L | AST [2]: 64.6 IU/L | BUN [2]: 16.8 mg/dL | CRE [2]: 0.5 mg/dL | DBIL [2]: 0.032 mg/dL | GLC [2]: 193.6 mg/dL | IP [2]: 8 mg/dL | K [2]: 5 meq/L | LDH [2]: 89.4 IU/L | Na [2]: 139.2 meq/L | PL [2]: 145.4 mg/dL | RALB [2]: 3.9 g/dL | TBIL [2]: 0.3 mg/dL | TC [2]: 80.4 mg/dL | TG [2]: 90.6 mg/dL | TP [2]: 6 g/dL | gamma-GTP [2]: 2.4 IU/L | ALP [3]: 779.4 IU/L | AST [3]: 58.6 IU/L | BUN [3]: 18.2 mg/dL | CRE [3]: 0.5 mg/dL | DBIL [3]: 0.044 mg/dL | GLC [3]: 193.4 mg/dL | IP [3]: 7.7 mg/dL | K [3]: 5.2 meq/L | LDH [3]: 70.8 IU/L | Na [3]: 139.8 meq/L | PL [3]: 160.8 mg/dL | RALB [3]: 3.9 g/dL | TBIL [3]: 0.3 mg/dL | TC [3]: 83.6 mg/dL | TG [3]: 116.6 mg/dL | TP [3]: 6.1 g/dL | gamma-GTP [3]: 1.2 IU/L | ALP [4]: 610.4 IU/L | AST [4]: 55.6 IU/L | BUN [4]: 18.4 mg/dL | CRE [4]: 0.6 mg/dL | DBIL [4]: 0.038 mg/dL | GLC [4]: 185 mg/dL | IP [4]: 7 mg/dL | K [4]: 4.4 meq/L | LDH [4]: 76.2 IU/L | Na [4]: 140.6 meq/L | PL [4]: 159.6 mg/dL | RALB [4]: 4 g/dL | TBIL [4]: 0.3 mg/dL | TC [4]: 81.6 mg/dL | TG [4]: 132 mg/dL | TP [4]: 6.2 g/dL | gamma-GTP [4]: 1.2 IU/L | TERMINAL_BW [5]: 223.8 g | Bas [5]: 0% | Eos [5]: 1% | Fbg [5]: 229 mg/dL | Hb [5]: 14.3 g/dL | Ht [5]: 43.3% | MCHC [5]: 33.1% | MCV [5]: 63.4 fL | Mono [5]: 5% | Neu [5]: 2.6% | Plat [5]: 122.5 x10_4/uL | RBC [5]: 684 x10_4/ul | Ret [5]: 3.9% | WBC [5]: 123.3 x10_2/uL | KIDNEY_L [5]: 1 g | KIDNEY_R [5]: 1 g | KIDNEY_TOTAL [5]: 2.1 g | LIVER [5]: 10.2 g | ALP [5]: 864.8 IU/L | AST [5]: 61.8 IU/L | BUN [5]: 15.8 mg/dL | CRE [5]: 0.5 mg/dL | DBIL [5]: 0.1 mg/dL | GLC [5]: 189 mg/dL | IP [5]: 8.8 mg/dL | K [5]: 5.1 meq/L | LDH [5]: 204.6 IU/L | Na [5]: 138.8 meq/L | PL [5]: 108 mg/dL | RALB [5]: 3.7 g/dL | TBIL [5]: 0.6 mg/dL | TC [5]: 67 mg/dL | TG [5]: 48.2 mg/dL | TP [5]: 6 g/dL | gamma-GTP [5]: 1.2 IU/L | TERMINAL_BW [6]: 249 g | TERMINAL_BW [7]: 298.6 g | TERMINAL_BW [8]: 356.4 g | Bas [6]: 0% | Eos [6]: 0.4% | Fbg [6]: 226.8 mg/dL | Hb [6]: 13.8 g/dL | Ht [6]: 41.1% | MCHC [6]: 33.5% | MCV [6]: 62.9 fL | Mono [6]: 6.4% | Neu [6]: 7.4% | Plat [6]: 106.5 x10_4/uL | RBC [6]: 653.6 x10_4/ul | Ret [6]: 4.7% | WBC [6]: 165.2 x10_2/uL | Bas [7]: 0% | Eos [7]: 0.2% | Fbg [7]: 222.4 mg/dL | Hb [7]: 13.9 g/dL | Ht [7]: 41.2% | MCHC [7]: 33.7% | MCV [7]: 58.7 fL | Mono [7]: 3.4% | Neu [7]: 4.8% | Plat [7]: 114.3 x10_4/uL | RBC [7]: 702.8 x10_4/ul | Ret [7]: 4.2% | WBC [7]: 185.6 x10_2/uL | Bas [8]: 0% | Eos [8]: 0.6% | Fbg [8]: 214.4 mg/dL | Hb [8]: 14 g/dL | Ht [8]: 42.2% | MCHC [8]: 33.1% | MCV [8]: 53.7 fL | Mono [8]: 5.4% | Neu [8]: 8.8% | Plat [8]: 111.8 x10_4/uL | RBC [8]: 786.6 x10_4/ul | Ret [8]: 2.4% | WBC [8]: 116.3 x10_2/uL | KIDNEY_L [6]: 1 g | KIDNEY_R [6]: 1 g | KIDNEY_TOTAL [6]: 2 g | KIDNEY_L [7]: 1.2 g | KIDNEY_R [7]: 1.2 g | KIDNEY_TOTAL [7]: 2.4 g | KIDNEY_L [8]: 1.3 g | KIDNEY_R [8]: 1.3 g | KIDNEY_TOTAL [8]: 2.6 g | LIVER [6]: 12.2 g | LIVER [7]: 13.9 g | LIVER [8]: 16.8 g | ALP [6]: 976.6 IU/L | AST [6]: 62.2 IU/L | BUN [6]: 17.4 mg/dL | CRE [6]: 0.5 mg/dL | DBIL [6]: 0.2 mg/dL | GLC [6]: 181.2 mg/dL | IP [6]: 9 mg/dL | K [6]: 4.9 meq/L | LDH [6]: 158.4 IU/L | Na [6]: 139.8 meq/L | PL [6]: 139.6 mg/dL | RALB [6]: 3.9 g/dL | TBIL [6]: 0.5 mg/dL | TC [6]: 74.8 mg/dL | TG [6]: 75.8 mg/dL | TP [6]: 6.2 g/dL | gamma-GTP [6]: 1.8 IU/L | ALP [7]: 781 IU/L | AST [7]: 60.2 IU/L | CRE [7]: 0.5 mg/dL | DBIL [7]: 0.2 mg/dL | GLC [7]: 182.2 mg/dL | IP [7]: 8.3 mg/dL | K [7]: 4.9 meq/L | LDH [7]: 163.8 IU/L | Na [7]: 140.8 meq/L | PL [7]: 144.8 mg/dL | RALB [7]: 4.1 g/dL | TBIL [7]: 0.4 mg/dL | TC [7]: 82.2 mg/dL | TG [7]: 73 mg/dL | TP [7]: 6.1 g/dL | gamma-GTP [7]: 1.8 IU/L | ALP [8]: 771 IU/L | AST [8]: 54.8 IU/L | BUN [8]: 19.2 mg/dL | CRE [8]: 0.5 mg/dL | DBIL [8]: 0.3 mg/dL | GLC [8]: 185.4 mg/dL | K [8]: 4.4 meq/L | LDH [8]: 160.6 IU/L | Na [8]: 141.2 meq/L | PL [8]: 134 mg/dL | RALB [8]: 4.1 g/dL | TBIL [8]: 0.6 mg/dL | TC [8]: 76 mg/dL | TG [8]: 75.4 mg/dL | TP [8]: 6.3 g/dL | gamma-GTP [8]: 0.8 IU/L
